One test deals with SK-N-BE(2) cells. In words: Fluorometric total cellular cholesterol (Amplex Red Cholesterol Assay Kit). It counts as cell-based, human. Particulars: orthogonal experiment. The source says: FIG. 11A-C. (A) Plots of 13C labelled (left) and total+labeled cholesterol (right) abundances measured in methanol extracts from vehicle/CBD treated cells. (B) A similar analysis for cholesterol precursors. (C) Fluorometric measurement of total cellular cholesterol from methanol extracts of SK-N-BE(2) cells using the Amplex Red Cholesterol Assay Kit.
These findings raise the question of whether CBD treatment leads to alterations in lipid and cholesterol metabolism (the latter pathway depicted in FIG. 3A). The present inventors used mass spectrometry-based lipidomics, a subset of metabolomics, to quantify the effect of CBD on the fluxes of key lipids and sterols. Vehicle and CBD exposed cells were fed ^13C labeled glucose for 24 hours and harvested using methanol extraction and mass spectrometry analysis. Cholesterol biosynthesis was analyzed by determining the level of incorporation of ^13C into biosynthetic intermediates. […] The effect of CBD on total cellular cholesterol was confirmed using a fluorogenic assay for cholesterol in an orthogonal experiment (FIG. 11B).

Test [1] in a line: FRAP of NBD-cholesterol in synthetic membrane monolayers. The settings on record: PC SUV derived monolayers, 20% cholesterol, 2% NBD-cholesterol. From the text: CBD's ability to affect cholesterol orientation in both synthetic and cell derived ER membranes implies that CBD may contribute to increased lipid order. The ability of cholesterol oxidase assays to reveal alterations in lipid order has been previously reported in studies noting that cholesterol oxidase can preferentially target caveolar domains, which are ordered lipid domains. Another hallmark of lipid order is a decrease in lateral diffusion of lipids. As a result, the present inventors aimed to measure CBD's ability to perturb the lateral diffusion of fluorescently labelled cholesterol (NBD-cholesterol) in synthetic membranes. The present inventors deposited PC SUVs containing 20% moles of cholesterol and 2% moles NBD-cholesterol on glass-bottom multi-well imaging plates, followed by ultra-sonification to construct fluorescently labelled membrane monolayers. Using these monolayers and confocal microscopy, the inventor's performed fluorescence recovery after photobleaching (FRAP) experiments to measure the kinetics of recovery of fluorescent cholesterol. […] This effect of CBD on lateral diffusion could be rescued with simultaneous treatment with the lipid disordering agent DHA (FIGS. 6G, I). There are two proposed models for how DHA affects cholesterol in membranes. […]

Each structure is given as a SMILES string.

As for `C=C(C)[C@@H]1CCC(C)=C[C@H]1c1c(O)cc(CCCCC)cc1O` [CBD, cannabidiol], the “effect on total cellular cholesterol, fluorogenic assay” value with SK-N-BE(2) cells is given as “confirmed”. Also, the “FRAP kinetics (lateral diffusion of fluorescent cholesterol)” value in test [1] is “significantly reduced”.

The values are drawn from patent US20210244686A1, “Novel Systems And Methods For The Therapeutic Use of Cannabinoids or Cannabinoid Analogs to Increase The Lipid Order of Cholesterol Containing Cell Membranes” (The Regents of the University of Colorado a body corporate, priority 2018, published 2021).
